Test results taken from patent publication US9844535B2, “SHP2 inhibitors and methods of treating autoimmune and/or glomerulonephritis-associated diseases using SHP2 inhibitors” (Indiana University Research and Technology Corporation, priority 2013, dated 2017).
“Also recorded” adds a separate entry of the source.

Key:
[1] = test system: MRL/lpr mouse kidney immune cells; assay: Flow cytometry of immune cells infiltrating the kidney; assay type: in vivo; conditions: MRL/lpr mice vs vehicle
Experimental: Kidney, spleen, lung, and axillary lymph nodes were excised from either vehicle or drug-treated mice, and single cell suspensions were obtained by teasing the organs through a nylon mesh. Briefly, kidneys were cut into small pieces and homogenized on a 70 μm nylon mesh in 5 ml of Hank's Balanced Salt Solution (HBSS) buffer. All of the homogenized tissues and cells were transferred to new 50 ml tubes and digested with collagenase type 4 (100 ug/ml) (Worthington Biochemical Corp., Freehold, N.J.) in HBSS for 30 minutes to 2 hours (37° C.) on a rotating shaker. After digestion, the cells were centrifuged at 2000 rpm for 10 minutes, and the kidney cell isolates were generated, which included infiltrated immune cell subsets.
(§1) To identify immune cell subsets, isolated cells from tissues were immunostained with mouse antibodies targeted against CD3E (145-2C11, BioLegend, San Diego, Calif.), CD4 (GK1.5, BioLegend), CD8 (53-6.7, eBioscience, San Diego, Calif.), CD45 (30-F11, eBioscience), CD 19 (6125, BioLegend), CD11b (M1170, BioLegend), TCRαβ (H57-597, BioLegend), CD44 (IM7, BioLegend), B220 (RA3-6B2, B.D. […], BD Biosciences, San Jose Calif.), CD138 (281-2, BioLegend), CD38 (CD28.2, BioLegend), Gr-1 (RB6.805, eBioscience), CD62L (DREG-56, BioLegend), and CD25 (PC61, BioLegend) for 30 minutes at 4° C. Samples were acquired on a LSR II flow cytometer (BD Biosciences) and the percentage of each sub-population of cells (B, T, monocytes, macrophage and neutrophils) was assessed by FlowJo [version 7.2.2 (Tree Star)]. Total cell numbers were counted using a hemocytometer. Absolute cell numbers for each sub-population were calculated based on the percentage of each population.
B cells, T cells, macrophage and neutrophils from the MRL/lpr inhibitor-treated and vehicle-treated mouse kidneys of Example 9 were isolated.

[2] = test system: MRL/lpr mouse spleen immune cells; assay: Cellular immune response in spleen (histology, flow cytometry); assay type: in vivo
Excerpt: Harvested organs (kidney, spleen, and heart) to be used to assess morphometry and histochemistry were flushed with PBS, perfusion fixed in Bouin's reagent, and paraffin embedded. Sections (5 μm) were stained with Hematoxylin and Eosin (H&E), Periodic acid—Schiff stain (PAS), Masson-Trichrome, or reticulin staining at the Harvard Medical School Rodent Histopathology Core and scored using an unbiased approach, in which histology scores of 1 (normal) to 5 (most severe pathology) were designated to tissue sections which were only numerically labeled and in no particular order (by Dr. Roderick Bronson, director of the Rodent Histopathology Core, Harvard Medical School). Numerical sections were later decoded, marked for their designated score, and statistically analyzed. Images of the tissue sections were obtained and quantified on a Keyence BZ-9000 Microscope (Keyence Corporation, Itasca, Ill.).
Spleens were cut into 2 to 3 pieces each and homogenized on a 70 μm nylon mesh in 5 ml of HBSS buffer. The cells were filtered through a 70 μm nylon mesh to a new 50 ml tube and centrifuged at 2000 rpm for 5 minutes at room temperature. […]
as §1, with “population. […]” for “population.”

MRL/lpr mice = assay: Longevity study; assay type: in vivo, mouse; conditions: SLE-prone MRL/lpr mice, 7.5 mg/kg/day ip from 11 weeks of age; listed as SHP2 inhibitor
Experimental: Female MRL/lpr mice were used for a survival/longevity curve analysis. Mice either ip injected with vehicle (DMSO) or SHP2 inhibitor (7.5 mg/kg/each day) were followed beginning at 11 weeks of age to assess tolerance to the inhibitor and longevity/survival curve. The testing was terminated when the last mouse in the control group died, at 26 weeks.

[3] = test system: T cells isolated from the spleen of SLE-prone mice; assay: Proliferation and viability of cultured mouse T cells; assay type: cell-based
Experimental: Whole tissue cell cultures prepared from mouse spleen and axillary lymph nodes were generated as described above. From within this total cell preparation, total T cells from spleen and the double negative T cells from axillary lymph nodes were further purified through negative selection using a pan T cell isolation kit from Milenyi Biotec (San Diego, Calif.). […] Next, 20 μl of anti-biotin beads were added per 1×10^7 cells and the reaction was kept on ice for another 30 minutes. After centrifuging at 2000 rpm for 5 minutes at 4° C., the pellet was resuspended in 2 ml of T cell isolation buffer (D-PBS, pH7.2, 0.5% FBS and 2 mM EDTA) and the T cells were purified through a magnetic sorting column (MACS).
The purity of isolated T cells routinely exceeded 94%. After purification, T cells were resuspended in RPMI1640 medium with 10% FBS and 1×10^5 cells/well in 100 ul total volume was loaded onto a 96-well plate, either left uncoated or precoated with anti-CD3 antibody (1 ug/ml) (OKT3; Biolegend). All cells loaded onto wells precoated with anti-CD3 antibody were also mixed with anti-CD28 antibody (0.5 μg/ml) (CD28.2; BioLegend) to help potentiate the T cell signaling response. Plated cells were cultured for 48 hours in either the presence of vehicle (DMSO) or Shp2 inhibitor (10 μg/ml). Following the incubation, 15 μl of medium was collected for various cytokine activity analyses.
For cell viability, an MTT (thiazolyl Blue tetrazolium Bromide, M2128, Sigma, St. Louis, Mo.) assay was employed. Briefly, 10 μl of the MTT labeling reagent (final concentration 0.5 mg/ml) was loaded into each cell culture well (96-well plate) and then incubated for 4 hours in a humidified chamber. Following incubation, 100 μl of solubilization solution (0.04N in absolute isopropanol) was added to each well, resuspended, and then incubated at 37° C. for an additional hour. Spectrophotometric absorbance of the samples was assessed using a microplate reader at a wavelength of 595 nm. T cell numbers/proliferation was assessed by cell count using a hemocytometer. In brief, 1×10^5 cells were plated in wells and cultured for 48 hours. 10 μl of cell suspension was then removed and mixed together with 10 μl of trypan blue solution (0.4%, T8154, Sigma). After mixing, 10 μl of the mixture was loaded onto the hemocytometer and the total average number of cells/well was calculated.
Moreover, the proliferative effects observed were specific to the double-negative T cell population (FIG. 20A).

`Cn1c(-c2cccc(NC(=O)C(=O)Nc3ccc(-c4ccsc4)cc3)c2)c(I)c2cc(C(=O)O)c(O)cc21` [11a-1] was tested, and the “B cells in kidney” value [1] was “no discernable differences”, the “infiltrating T cells in the SLE kidney” value [1] was “significantly reducing the overall number of CD4, CD8, and double-negative T cells” and the “infiltrating neutrophils and macrophages in kidney” value [1] was “significant reduction in numbers of infiltrating neutrophils and macrophages”. The “overall splenic T cell counts” value ([2]; MRL/lpr mice) was “overall splenic T cell counts were reduced”, the “splenic CD4, CD8 and double-negative T cells” value ([2]; MRL/lpr mice) was “significant reduction in CD4, CD8, and double-negative T cells” and the “germinal center formation in the spleen” value ([2]; MRL/lpr mice vs vehicle) was “greatly reduced”. For the same compound, the “lifespan / survival (Kaplan-Meier)” value (MRL/lpr mice) was “significantly increased lifespan; also recorded: increased longevity/survival effect”, the “total number / proliferation of double-negative T cells” value ([3]; MRL/lpr, CD3 activation, 48 hours culture, listed as SHP2 inhibitor) was “decreased the total number of double-negative T cells; also recorded: decreases proliferation” and the “viability of tissue-cultured double-negative T cells” value ([3]; MTT, absence or presence of CD3 ab, listed as SHP2 inhibitor) was “did not affect viability; also recorded: does not affect viability”. For the same compound, the “total T cell viability” value ([3]; MTT, absence or presence of CD3 antibody) was “no effect on total T cell viability”, the “inactive and CD3 activated T cell proliferation” value ([3]; SLE mouse splenic T cells, 48 hours culture) was “significantly inhibited” and the “effects in WT or MRL/MpJ control cells” value ([3]; presence or absence of stimulation) was “No effects were observed”.
